According to PubChem BioAssay AID1963597 (National Center for Advancing Translational Sciences (NCATS), 2024):

These compounds were tested on human liver microsomes, metabolic stability half-life (assay: NCATS Human Liver Microsomal (HLM) Stability Profiling). Conditions: higher = more stable; screened at 1 µM (by protocol).
Procedure, shortened: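 Half-life derived from parent loss over 0–60 min (0, 5, 10, 15, 30, 60 min) at 37 °C. Incubations: 0.5 mg/mL microsomes, 1 µM test article, NADPH regeneration, pH 7.4 phosphate; quenched in acetonitrile containing albendazole, analysed by MS.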
In the case of `O=C1COc2nccc(-c3ccccc3F)c2CN1Cc1cc(C(F)(F)F)cc(C(F)(F)F)c1`, the half-life is reported as 2.5 min. `CC1=C(C(=O)Nc2cccc(-c3ccn[nH]3)c2)C(c2ccccc2Cl)N=C(Nc2nc3ccccc3o2)N1` (stereo not drawn) was tested, and the half-life was 71.5 min. `Cc1cccc(C(=O)O)c1O` showed a half-life greater than 120 min. `C=Cc1cc(O)cc2nc(-c3ccc(O)c(F)c3)oc12` gave a half-life of 5.84 min. With `Cn1c(=O)cc(N2CCCC(N)C2)n(Cc2ccccc2C#N)c1=O` (stereo not drawn) the half-life was greater than 120 min. `O=C(O)CCCc1ccccc1` was tested, and the half-life was greater than 120 min. `O=C(Nc1ccc(-c2ccnc(Nc3ccc(N4CCOCC4)cc3)n2)cc1)C1CCCN1` (stereo not drawn) gave a half-life greater than 120 min. `O=C(CCc1ccccc1)N1CCC(O)(Cn2cnc3cc(Cl)ccc3c2=O)CC1` gave a half-life of 3.16 min. `CCNc1nc(Cl)nc(NCC)n1` showed a half-life of 59.4 min. With `Cc1cccc(C=NNc2cc(N3CCOCC3)nc(OCCc3ccccn3)n2)c1` the half-life was 16 min. `Cc1c(C(=O)Nc2cccc(C(F)(F)F)c2)cc(-c2ccccc2)n1CCCN1CCOCC1` showed a half-life of 8.06 min. `Nc1ccc(N=Nc2ccccc2)c(N)n1` showed a half-life of 7.45 min. For `O=C(O)c1cn(C2CC2)c2cc(Cl)c(F)cc2c1=O`, the half-life was greater than 120 min. `C[C@]12CC[C@H]3[C@@H](CCC4=CC(=O)CC[C@@]43C)[C@@H]1CC[C@@H]2C(=O)O` showed a half-life greater than 120 min. `CCOP(=S)(Oc1cnc(C(C)(C)C)nc1)OC(C)C` (stereo not drawn) gave a half-life of 11.1 min. Work on `COP(=S)(OC)Oc1ccc(SC)c(C)c1` yielded a half-life of 4.44 min. Work on `COC(=O)[C@@H]1CC2=CC(=O)CC[C@]2(C)[C@@]23O[C@@H]2C[C@@]2(C)[C@H](CC[C@@]24CCC(=O)O4)[C@@H]13` yielded a half-life greater than 120 min. Work on `COCCCN1CCC(NC(=O)c2cc(Cl)c(N)c3c2OCC3)CC1` yielded a half-life greater than 120 min. With `COc1ccc(-c2nc3ccccc3c(=O)n2Cc2ccco2)cc1COc1ccc(NC(C)=O)cc1` the half-life was 1.85 min. `CCCCCCCCCCCCCCCCCCN(C)C` gave a half-life greater than 120 min. Compound `CCOC(=O)c1ncn2c1CN(C)C(=O)c1c(I)cccc1-2` has a half-life of 111 min. Work on `CC(C)(C)c1ccc(C(=O)CCCCl)cc1` yielded a half-life of 3.84 min. For `O=C(O)c1ccc(Nc2ncc3c(n2)-c2ccc(Cl)cc2C(c2c(F)cccc2F)=NC3)cc1`, the half-life was 46.9 min. Compound `CCc1cc(Cl)c(OC)c(C(=O)NC[C@@H]2CCCN2CC)c1O` has a half-life of 13.6 min. For `Cc1nc2c(-c3cnc(N)nc3)nc(N3CCOCC3)nc2n1C(C)C`, the half-life was greater than 120 min. For `O=C(O)c1ccc(CN2CCOC[C@H]2c2ncc(-c3ccc(F)cc3)[nH]2)cc1`, the half-life was greater than 120 min. In the case of `CCN1CCc2nc(N)oc2CC1`, the half-life is reported as 112 min. With `CCc1nn(CCCN2CCN(c3cccc(Cl)c3)CC2)c(=O)n1CCOc1ccccc1` the half-life was 0.98 min. In the case of `Cc1cnc(NC(=O)c2cc(S(=O)(=O)N(C)C)ccc2N2CCCC2)s1`, the half-life is reported as 24.3 min. For `CC(C)(C)NCC(O)COc1cccc2c1CCC(=O)N2` (stereo not drawn), the half-life was greater than 120 min. `O=C(O)c1ccc2c(c1)nc(Nc1cccc(Cl)c1)c1ccncc12` was tested, and the half-life was 82.5 min. `C=CCOC1=C(OCC(O)CNC(C)C)CCCC1` (stereo not drawn) showed a half-life greater than 120 min. Compound `CCCCOCc1cc(CN2CCN(c3cccc(Cl)c3)CC2)c(O)c2ncccc12` has a half-life of 10.3 min. For `COc1ccc(-c2ccc3ncc4c(c3c2)n(-c2ccc(N3CCNCC3)c(C(F)(F)F)c2)c(=O)n4C)cn1`, the half-life was 36.3 min. `COc1ccc(OCC(=O)Nc2cc(-c3nc4ccccc4s3)ccc2C)cc1` showed a half-life of 3.38 min. For `Clc1ccc(N2CCN(c3ncnc4c3nc3n4CCCC3)CC2)cc1`, the half-life was 37.9 min. In the case of `NC(=O)c1nnn(Cc2cc(Cl)c(C(=O)c3ccc(Cl)cc3)c(Cl)c2)c1N`, the half-life is reported as greater than 120 min. `COC(=O)c1cc(S(N)(=O)=O)ccc1OC` was tested, and the half-life was 43.2 min. `CC(C)(C)c1cnc(CSc2cnc(NC(=O)C3CCNCC3)s2)o1` showed a half-life greater than 120 min. `ClCCN1CCCC1` gave a half-life of 55.7 min. For `CC(C)Oc1ccc2c(=O)c(-c3ccccc3)coc2c1`, the half-life was 16.1 min. `CN1CCC(Nc2ncc3ncnc(Nc4ccc(F)c(Cl)c4)c3n2)CC1` gave a half-life of 116 min. `Clc1ccc(C2(c3ccc(-c4cn[nH]c4)cc3)CCNCC2)cc1` showed a half-life greater than 120 min. `CC(=O)N1CCN(c2ccc(O)cc2)CC1` was tested, and the half-life was greater than 120 min. Compound `C=CC(=O)Nc1cccc(CN2C(=O)N(c3c(Cl)c(OC)cc(OC)c3Cl)Cc3cnc(NCCCCN(CC)CC)nc32)c1` has a half-life of 43 min. With `CCN(C(=O)c1sc2cc(OC)ccc2c1Cl)c1ccccc1` the half-life was 3.3 min. With `O=C(O)c1ccc2[nH]cc(CCCCN3CC=C(c4ccccc4)CC3)c2c1` the half-life was greater than 120 min. For `C[C@]12CC[C@@H]3c4ccc(O)cc4CC[C@H]3[C@@H]1CCC2=O`, the half-life was 34.1 min. For `Cc1cccc(C)c1NC(=O)[C@H]1CCCCN1C`, the half-life was greater than 120 min. Compound `COc1cc2cc(CN3CCC(N(C)C)C3)c(-c3cccc(Cl)c3)nc2cc1OC` (stereo not drawn) has a half-life greater than 120 min. `CC(=O)NC[C@H]1CN(c2ccc(N3CCN(C(=O)CO)CC3)c(F)c2)C(=O)O1` was tested, and the half-life was greater than 120 min. `CCOC(=O)C(c1c(O)c2ccccc2oc1=O)c1c(O)c2ccccc2oc1=O` gave a half-life of 10.3 min. Compound `COCCCNC(=O)C(=O)Nc1c2c(nn1-c1cccc(Cl)c1)CSC2` has a half-life of 24.9 min.
